From US20220175692A1, “PRESYNAPTIC GLUTAMATE RELEASE INHIBITORS FOR DECREASING NMDA ANTAGONIST SIDE EFFECTS IN ANESTHESIA” (THE CLEVELAND CLINIC FOUNDATION, priority 2020, published 2022)

Experiments:
[1] = system: ketamine-induced psychological disturbances in adults scheduled for elective noncardiac surgery; assay: Pilot randomized, double-blind trial of lamotrigine before surgery with ketamine anesthesia; assay type: in vivo, human
Source text: We report the finding of a pilot randomized and double-blind trial in which we tested the hypothesis that a single 300-mg dose of lamotrigine given a few hours before surgery reduces ketamine-induced psychological disturbances. We enrolled 46 adults (23 Lamotrigine, 23 placebo) 18-65 years who were scheduled for elective noncardiac surgery with general anesthesia with a planned overnight stay at Cleveland Clinic main campus between April 2019 and October 2019. All included patients provided written informed consent during their preoperative clinic visit. The trial was approved by Cleveland Clinic Institutional Review Board and was registered at clinicaltrails.gov [NCT03831854; PI Kamal Maheshwari; February 2019]. It was a priori defined as a pilot trial.
All patients received ketamine 1 mg/kg bolus at induction of anesthesia followed by a 5-μg/kg/min infusion which was stopped at the end of surgery. Anesthesia generally included propofol, a muscle relaxant, fentanyl, and sevoflurane. The primary outcome was presence of the psychologic disturbances measured 30-90 min after admission to the post-anesthesia care unit. We evaluated four key items of the Brief Psychiatric Rating Scale corresponding to positive symptoms of schizophrenia: conceptual disorganization, hallucinatory behavior, suspiciousness, and unusual thought content. Each symptom was rated 1-7 (1=not present, 2=very mild, 3=mild, 4=moderate, 5=moderately severe, 6=severe, 7=extremely severe). Secondary outcomes were opioid use, pain, and postoperative nausea or vomiting in the post-anesthesia care unit.

[2] = system: psychologic disturbances associated with perioperative ketamine use; conditions: reported range across studies (Avidan et al. 2017); cited from earlier work
[3] = system: ketamine-induced perceptual abnormalities in healthy subjects; conditions: 300 mg oral lamotrigine; cited from earlier work

Row | SMILES | patients who displayed psychologic disturbances ([1]; all trial patients (lamotrigine and placebo groups), moderate dose of ketamine: 1 mg/kg bolus then 5-μg/kg/min infusion) | incidence of psychologic disturbances associated with perioperative ketamine use [2] | pain scores, difference in means lamotrigine vs placebo ([1]; 98.3% CI −1.7, 2.6, P=0.58) | Opioid use, median difference lamotrigine vs placebo ([1]; 98.3% CI −9.5, 5.0, P=0.63) | pain scores, mean±standard deviation ([1]; in the post-anesthesia care unit, lamotrigine 300 mg patients) | patients who experienced nausea or vomiting ([1]; in vivo) | patients with psychologic disturbances (four key items of the Brief Psychiatric Rating Scale) ([1]; single 300-mg dose of lamotrigine a few hours before surgery, ketamine 1 mg/kg bolus then 5-μg/kg/min infusion, measured 30-90 min after admission to post-anesthesia care unit, n=23) | effect on ketamine-induced perceptual abnormalities [3]
1 | CNC1(c2ccccc2Cl)CCCCC1=O (centres unmarked) [ketamine] | 6% | 7% to 27 | – | – | – | – | – | –
2 | Nc1nnc(-c2cccc(Cl)c2Cl)c(N)n1 [lamotrigine] | – | – | 0.5 | −2.3 | 4.9±3.1 | Five | No patients | significantly decreased
